According to patent publication US8618068B2, “Methods and low dose regimens for treating red blood cell disorders” (priority 2009, dated 2013):

Experiments:
[1] = system: human peripheral lymphocytes; experiment: Chromosome aberrations in human peripheral lymphocytes; format: cell-based
Experimental: DMB was examined for the potential to induce chromosome aberrations in human peripheral lymphocytes in the presence and absence of an exogenous metabolic activation system (S9 mix). In the 3-hour cultures (without or with activation), the highest three concentrations (2450, 3500, and 5000 μg/mL) were analyzed for chromosome aberrations. In the 22-hour treatment, 288, 412 and 588 μg/ML were analyzed for chromosome aberrations. […] The aberrations in control cultures were within historical ranges. DMB was therefore considered negative for inducing structural or numerical chromosome aberrations in human peripheral lymphocytes with and without metabolic activation.

[2] = Phase 2 trial in sickle cell disease patients, safety; format: in vivo, human; details: 10, 20, 30 mg/kg/day
Experimental: (§1) A randomized, blinded dose-ranging Phase 1/2 clinical trial was performed in 24 US and Jamaican adult patients with sickle cell disease (including HbSS or S/β thalassemia). DMB was administered once daily for six week cycles of daily therapy with a 2 week treatment break between two cycles, then followed by a final 4 weeks without treatment. Three dose levels (10, 20, 30 mg/kg/day) were studied sequentially. Four out of 24 subjects were treated with placebo and 21 subjects were evaluable. Seven Patients (5 active/2 placebo) at 10 mg/kg, 6 patients (5 active/1 placebo) at 20 mg/kg, and 9 patients (7 active/1 placebo) at 30 mg/kg were randomized in the study. Patients ranged in age from 14 to 56 with a median age of 31 and were comprised of […]. Patients were followed for hematologic parameters focusing on fetal hemoglobin (HbF). HbF was measured by a Waters Empower 32 HPLC system with a Synchropak CM-300 column.

clinical = details: human, in vivo
Experimental: Patients were monitored every 2 weeks for laboratory studies, physical examinations, and adverse events. Further, patients were followed for hematologic parameters primarily focusing on hemoglobin and fetal hemoglobin (HbF). In addition, pharmacokinetic samples were obtained on Day 0 and 13, at pre-dose and 2, 4, 6, 8, 12, and 24 hours post-dosing. Hemoglobin was measured at each site using standard hematology equipment. HbF was measured using Varian HPLC. […] Adverse events in treated subjects included headache, upper respiratory infection, pyrexia, fatigue, nausea, and dizziness, but the rates of such events were not markedly different from those observed in the placebo-treated subjects.
A noncompartmental PK analysis was conducted using steady state concentration-time data for Day 13.

Solubility in water = format: physicochemical
F-cells = F-cells in Bfu-e erythroid progenitor cultures; format: cell-based
in vivo = experiment: in vivo; parameters: species or system baboon; details: po
Experimental: Additionally, the pharmacokinetic profile of DMB was evaluated in a female baboon who received an IV dose of 50 mg/kg and single oral doses of 100, 150 and 200 mg/kg. Following IV administration, DMB concentrations peaked at the end of dose administration and decayed in a log-linear fashion with no obvious appearance of a distribution phase and after oral administration, the concentration reached a peak within 2 hours after dosing and subsequently decayed in a log-linear fashion at all three dose levels. There was a secondary DMB peak which occurred at 6 hours after dosing of the 200 mg/kg oral dose (FIG. 4).
Vz/F was consistently smaller as the dose was increased.

fetal hemoglobin (HbF) = experiment: Phase 2 trial in sickle cell disease patients, HbF, total Hgb, fetal globin mRNA; format: in vivo, human
Experimental: as §1

[3] = Toxicokinetics, 26-week rat study; format: in vivo, Sprague Dawley rats; details: for AUC(0-inf): both sexes, Sprague Dawley, rat, plasma, po, mean of male and female rats
Experimental: DMB was administered to Sprague Dawley rats daily for 26 weeks at doses of 50, 100 and 500 mg/kg/day via oral gavage. Plasma levels of DMB were measured at 1 to 24 hours post-dose on Days 1 and 181. […] Systemic exposure increased with increasing dose level and was greater than dose-proportional on Day 0 and Day 181. The peak and extent of systemic exposure of Sprague Dawley rats to DMB were similar in males and females. Systemic exposure values on Day 181 ranged from 137% to 218% of the values at Day 0 indicating an accumulation of DMB during this time period.
Toxicokinetic information from the 26-week rat (Table 7) and 26-week dog toxicity studies (Table 8) are compared to systemic exposure (AUC) levels determined in a clinical study.

SMILES: CCC(C)(C)C(=O)[O-].[Na+] [DMB, Sodium 2,2-dimethylbutyrate]
- numerical aberrations (polyploidy or endoreduplication) [1]: No test article-related increase
- structural chromosome aberrations compared to vehicle-treated cultures ([1]; 3 h ± S9 up to 5000 μg/mL, 22 h up to 588 μg/mL): no test article-related increases
- induction of structural or numerical chromosome aberrations ([1]; with and without metabolic activation): negative
- tolerability [2]: well tolerated
- Tmax (clinical): 2.5 to 3.1 h
- half-life (clinical; 10 mg/kg): 12.1 h
- half-life (clinical; 40 mg/kg): 10.3 h
- solubility (Solubility in water): > 500 mg/mL
- F-cells increase above F-cell levels in control cultures (F-cells): 32-71%
- half-life (in vivo; female, monkey): 2.89 to 6.92 h
- bioavailability (in vivo; female, monkey, 100 mg/kg): 71.8%
- Tmax (in vivo; female, monkey, 200 mg/kg): 1.5 to 2 h
- CL/F at 200 mg/kg relative to the lower doses (in vivo; 200 mg/kg): about ¼
- responding subjects in whom lactate dehydrogenase (LDH) declined (fetal hemoglobin (HbF); 30 mg/kg doses): 4 of 5
- dose level with the largest increase in HbF (fetal hemoglobin (HbF); Day 97): 30 mg/kg
- dose level with the largest increase in total Hgb (fetal hemoglobin (HbF); Day 97): 30 mg/kg
- change in percent HbF at Day 97 (fetal hemoglobin (HbF); all 3 DMB dose groups, compared to a decrease in placebo): median increases
- change in absolute HbF at Day 97 (fetal hemoglobin (HbF); all three DMB dose groups): Median increases
- change in total Hgb at Day 97 (fetal hemoglobin (HbF); all three DMB dose groups, compared to a decrease in placebo): median increases
- percentage of F-cells and percentage of fetal hemoglobin (fetal hemoglobin (HbF); in some instances (FIG. 22, 10 mg/kg)): increased throughout the treatment period
- time of peak plasma concentrations ([3]; Day 0): 1 h
- AUC(0-inf) ([3]; 50 mg/kg): 125 µg·h/mL
- AUC(0-inf) ([3]; 100 mg/kg): 278 µg·h/mL
- AUC(0-inf) ([3]; 500 mg/kg (NOAEL)): 3440 µg·h/mL
- rat AUC0-∞ relative to human AUC0-∞ ([3]; rat 50 mg/kg vs human 2 mg/kg): 3.2X
- rat AUC0-∞ relative to human AUC0-∞ ([3]; rat 50 mg/kg vs human 5 mg/kg): 0.4X
- rat AUC0-∞ relative to human AUC0-∞ ([3]; rat 50 mg/kg vs human 10 mg/kg): 0.2X
- rat AUC0-∞ relative to human AUC0-∞ ([3]; rat 50 mg/kg vs human 20 mg/kg): 0.1X
- rat AUC0-∞ relative to human AUC0-∞ ([3]; rat 100 mg/kg vs human 2 mg/kg): 7.3X
- rat AUC0-∞ relative to human AUC0-∞ ([3]; rat 100 mg/kg vs human 5 mg/kg): 0.9X
- rat AUC0-∞ relative to human AUC0-∞ ([3]; rat 100 mg/kg vs human 10 mg/kg): 0.5X
- rat AUC0-∞ relative to human AUC0-∞ ([3]; rat 100 mg/kg vs human 20 mg/kg): 0.2X
- rat AUC0-∞ relative to human AUC0-∞ ([3]; rat 500 mg/kg (NOAEL) vs human 2 mg/kg): 91X
- rat AUC0-∞ relative to human AUC0-∞ ([3]; rat 500 mg/kg (NOAEL) vs human 5 mg/kg): 10.7X
- rat AUC0-∞ relative to human AUC0-∞ ([3]; rat 500 mg/kg (NOAEL) vs human 10 mg/kg): 6.4X
- rat AUC0-∞ relative to human AUC0-∞ ([3]; rat 500 mg/kg (NOAEL) vs human 20 mg/kg): 2.9 X
